In patent US11357779B2 (G1 Therapeutics, Inc., priority 2018, dated 2022):
Like-named read-outs stand apart in the source and are kept apart here.

Experiment: Plasma concentration versus time of Compound I and metabolite Compound III in patients dosed QD or BID with Form B of Compound II plus fulvestrant
Type: in vivo, human
Conditions: human, plasma, oral; for concentration at 0 h / concentration at 1 h / concentration at 2 h / concentration at 3 h / concentration at 4 h / concentration at 6 h / concentration at 8 h / concentration at 10 h / concentration at 12 h / concentration at 24 h: read-out: Compound I Concentration; for concentration at 8 day / concentration at 15 day / concentration at 22 day: Cohort 4, 500 mg QD of Form B; for concentration at 8 day: Day 8; for concentration at 15 day: Day 15; for concentration at 22 day: Day 22
Text: Patients were enrolled into 1 of 2 parallel, independently operating, dose-escalation dosing cohorts with Form B of Compound II administered continuously either once daily (QD) or twice daily (BID) with food with fixed-dose fulvestrant (intramuscularly every 14 days for the first three injections and then every 28 days). Pre- or perimenopausal patients also received goserelin for the duration of study treatment. A […] agonist was started at least 28 days before the first dose of Form B, and those patients who were taking another LHRH agonist were switched to goserelin on Day 1. Patients were split into […] cohorts providing once a day (QD) dosing of 200 mg, 300 mg, 400 mg, 500 mg, or 650 mg of Form B, or twice a day (BID) dosing of 100 mg, 150 mg, or 200 mg of Form B. The second dose in BID cohorts was not administered in the evening until at least 12 hours after the initial morning dose of Form B. The dosing cohorts for Form B of Compound II are provided in Table 1.
Blood samples were collected at the following time points relative to the morning dose of Form B at Day 1 and at Day 29: pre-dose (0 hour) and 1, 2, 3, 4, 6, 8, 10, 12 (prior to the evening dose in the BID cohorts), and 24 (prior to the next day's morning dose) hours after dosing. A 5-minute time window was allowed for samples collected between the predose and 3 hours after Form B dosing. A 15-minute window was allowed for samples collected between 4 to 12 hours after Form B dosing. A 1-hour window was allowed for the sample collected 24 hours after Form B dosing. Blood samples for Compound I PK trough levels were collected pre-dose at Day 8, Day 15, and Day 22 prior to the morning administration of Compound I. Plasma concentrations of Compound I and its metabolite, Compound III, were measured using validated methods.
Analysis of plasma concentration versus time data for calculation of standard pharmacokinetic (PK) parameters following oral administration was conducted using Phoenix WinNonlin version 6.3 using actual blood sampling times.

[1] = 500 mg, read-out: Trough Compound I Concentration, Max
[2] = 500 mg, read-out: Trough Compound I Concentration, Median

Work on `CC(C)N1CCN(c2ccc(Nc3ncc4cc5n(c4n3)C3(CCCCC3)CNC5=O)nc2)CC1` [Compound I, 2′-((5-(4-isopropylpiperazin-1-yl)pyridin-2-yl)amino)-7′,8′-dihydro-6′H-spiro[cyclohexane-1,9′-pyrazino[1′,2′:1,5]pyrrolo[2,3-d]pyrimidin]-6′-one] yielded a concentration at 0 h (500 mg, 500 mg QD of Form B, Day 1, 0.0 h, Median) of 0 ng/mL, a concentration at 1 h (500 mg, 500 mg QD of Form B, Day 1, 1.0 h, Mean) of 10.4 ng/mL and a concentration at 1 h (500 mg, 500 mg QD of Form B, Day 1, 1.0 h, Median) of 10.2 ng/mL. For the same molecule, the concentration at 2 h (500 mg, 500 mg QD of Form B, Day 1, 2.0 h, Mean) was 18.5 ng/mL, the concentration at 2 h (500 mg, 500 mg QD of Form B, Day 1, 2.0 h, Median) was 18.1 ng/mL and the concentration at 3 h (500 mg, 500 mg QD of Form B, Day 1, 3.0 h, Mean) was 34.3 ng/mL. The concentration at 3 h (500 mg, 500 mg QD of Form B, Day 1, 3.0 h, Median) was 27.4 ng/mL, the concentration at 4 h (500 mg, 500 mg QD of Form B, Day 1, 4.0 h, Mean) was 35.4 ng/mL and the concentration at 4 h (500 mg, 500 mg QD of Form B, Day 1, 4.0 h, Median) was 35.3 ng/mL. It also gave a concentration at 6 h (500 mg, 500 mg QD of Form B, Day 1, 6.0 h, Mean) of 46.5 ng/mL, a concentration at 6 h (500 mg, 500 mg QD of Form B, Day 1, 6.0 h, Median) of 45.6 ng/mL and a concentration at 8 h (500 mg, 500 mg QD of Form B, Day 1, 8.0 h, Mean) of 40.6 ng/mL. For the same molecule, the concentration at 8 h (500 mg, 500 mg QD of Form B, Day 1, 8.0 h, Median) was 42.3 ng/mL, the concentration at 10 h (500 mg, 500 mg QD of Form B, Day 1, 10.0 h, Mean) was 32.2 ng/mL and the concentration at 10 h (500 mg, 500 mg QD of Form B, Day 1, 10.0 h, Median) was 33.4 ng/mL. It also gave a concentration at 12 h (500 mg, 500 mg QD of Form B, Day 1, 12.0 h, Mean) of 27.8 ng/mL, a concentration at 12 h (500 mg, 500 mg QD of Form B, Day 1, 12.0 h, Median) of 28.3 ng/mL and a concentration at 24 h (500 mg, 500 mg QD of Form B, Day 1, […], Mean) of 8.93 ng/mL. For the same molecule, the concentration at 24 h (500 mg, 500 mg QD of Form B, Day 1, […], Median) was 7.17 ng/mL, the concentration at 0 h (500 mg, 500 mg QD of Form B, Day 29, 0.0 h, Mean) was 14.4 ng/mL and the concentration at 0 h (500 mg, 500 mg QD of Form B, Day 29, 0.0 h, Median) was 15.3 ng/mL. The concentration at 1 h (500 mg, 500 mg QD of Form B, Day 29, 1.0 h, Mean) was 21.2 ng/mL, the concentration at 1 h (500 mg, 500 mg QD of Form B, Day 29, 1.0 h, Median) was 17.6 ng/mL and the concentration at 2 h (500 mg, 500 mg QD of Form B, Day 29, 2.0 h, Mean) was 34.2 ng/mL. The concentration at 2 h (500 mg, 500 mg QD of Form B, Day 29, 2.0 h, Median) was 33.8 ng/mL, the concentration at 3 h (500 mg, 500 mg QD of Form B, Day 29, 3.0 h, Mean) was 40.3 ng/mL and the concentration at 3 h (500 mg, 500 mg QD of Form B, Day 29, 3.0 h, Median) was 41.4 ng/mL. The concentration at 4 h (500 mg, 500 mg QD of Form B, Day 29, 4.0 h, Mean) was 41.8 ng/mL, the concentration at 4 h (500 mg, 500 mg QD of Form B, Day 29, 4.0 h, Median) was 44.9 ng/mL and the concentration at 6 h (500 mg, 500 mg QD of Form B, Day 29, 6.0 h, Mean) was 41.5 ng/mL. It also gave a concentration at 6 h (500 mg, 500 mg QD of Form B, Day 29, 6.0 h, Median) of 43.2 ng/mL, a concentration at 8 h (500 mg, 500 mg QD of Form B, Day 29, 8.0 h, Mean) of 34.1 ng/mL and a concentration at 8 h (500 mg, 500 mg QD of Form B, Day 29, 8.0 h, Median) of 33.5 ng/mL. The concentration at 10 h (500 mg, 500 mg QD of Form B, Day 29, 10.0 h, Mean) was 26.7 ng/mL, the concentration at 10 h (500 mg, 500 mg QD of Form B, Day 29, 10.0 h, Median) was 25.6 ng/mL and the concentration at 12 h (500 mg, 500 mg QD of Form B, Day 29, 12.0 h, Mean) was 24.4 ng/mL. For the same molecule, the concentration at 12 h (500 mg, 500 mg QD of Form B, Day 29, 12.0 h, Median) was 25.2 ng/mL, the concentration at 24 h (500 mg, 500 mg QD of Form B, Day 29, […], Mean) was 12.5 ng/mL and the concentration at 24 h (500 mg, 500 mg QD of Form B, Day 29, […], Median) was 13 ng/mL. For the same molecule, the concentration at 8 day [1] was 23.5 ng/mL, the concentration at 8 day [2] was 17.2 ng/mL and the concentration at 15 day [1] was 32.8 ng/mL. The concentration at 15 day [2] was 23.9 ng/mL, the concentration at 22 day [1] was 27.3 ng/mL and the concentration at 22 day [2] was 17.7 ng/mL. For the same molecule, the concentration at 0 h (650 mg, 650 mg QD of Form B, Day 1, 0.0 h, Mean) was 0 ng/mL, the concentration at 0 h (650 mg, 650 mg QD of Form B, Day 1, 0.0 h, Median) was 0 ng/mL and the concentration at 1 h (650 mg, 650 mg QD of Form B, Day 1, 1.0 h, Mean) was 12.7 ng/mL. For the same molecule, the concentration at 1 h (650 mg, 650 mg QD of Form B, Day 1, 1.0 h, Median) was 9.68 ng/mL, the concentration at 2 h (650 mg, 650 mg QD of Form B, Day 1, 2.0 h, Mean) was 24.8 ng/mL and the concentration at 2 h (650 mg, 650 mg QD of Form B, Day 1, 2.0 h, Median) was 19.1 ng/mL. For the same molecule, the concentration at 3 h (650 mg, 650 mg QD of Form B, Day 1, 3.0 h, Mean) was 30.9 ng/mL, the concentration at 3 h (650 mg, 650 mg QD of Form B, Day 1, 3.0 h, Median) was 31.6 ng/mL and the concentration at 4 h (650 mg, 650 mg QD of Form B, Day 1, 4.0 h, Mean) was 43.7 ng/mL. The concentration at 4 h (650 mg, 650 mg QD of Form B, Day 1, 4.0 h, Median) was 43.5 ng/mL, the concentration at 6 h (650 mg, 650 mg QD of Form B, Day 1, 6.0 h, Mean) was 52.7 ng/mL and the concentration at 6 h (650 mg, 650 mg QD of Form B, Day 1, 6.0 h, Median) was 49.8 ng/mL. It also gave a concentration at 8 h (650 mg, 650 mg QD of Form B, Day 1, 8.0 h, Mean) of 59.6 ng/mL.
